Measured values: patent US6482802B1 (Endowment for Research in Human Biology, Inc., priority 1998, dated 2002)
Values joined by “and” are separate entries in the source; they are usually repeats but may differ in a detail not shown here. Identical values can stand only once. “Also recorded” adds a separate entry of the source.

Columns and labels:
[1] = tested on: chorioallantoic membrane (CAM) of chick embryos; assay: CAM assay, bFGF-induced angiogenesis; assay type: in vivo; conditions: bFGF 10 ng alone
Method: (§1) Angiogenesis was measured on the CAM by the method of Knighton et al. (Knighton et al., 1977, Br. J. Cancer 35:347-356) essentially as described (Fett et al., 1985, Biochemistry 24:5480-5486). Fertilized chicken eggs were kept at 18° C. for 2 days and then incubated in a humidified environment at 37° C. for 3 days. Albumin was aspirated from the embryos and after 24 hours, a “window” was cut through the shell and covered with clear tape. […] After 48-68 hours at 37° C., the growth of blood vessels was observed microscopically and recorded as either positive or negative. A positive response (i.e., an angiogenic response) has a typical “spokewheel” appearance.

[2] = tested on: nuclear translocation of 125I-angiogenin in HUVE cells; assay: Nuclear translocation of 125I-angiogenin in HUVE cells; conditions: for effect on nuclear translocation of 125I-angiogenin: HUVE cells, concentrations as in Table 1; for Nuclear 125I-angiogenin: 37° C. 30 min, control 3090 ± 260; for Nuclear 125I-angiogenin / % inhibition of nuclear translocation of angiogenin: 125I-angiogenin 1 μg/ml 30 min
[3] = tested on: chorioallantoic membrane (CAM) of chick embryos; assay: CAM assay, angiogenin-induced angiogenesis; assay type: in vivo; conditions: for inhibition of angiogenin-induced angiogenesis in CAM assay: in vivo
Method: as §1

HUVE cells [4] = assay: bFGF-induced proliferation of HUVE cells, aminoglycoside antibiotics; assay type: cell-based, human; conditions: aminoglycoside 100 μM; for % Inhibition of bFGF-induced cell proliferation / bFGF (10 ng/ml) Cell Numbers: bFGF 10 ng/ml; for bFGF (10 ng/ml) Cell Numbers / Control (cell number without bFGF): 48 hr; for bFGF (10 ng/ml) Cell Numbers: control 99000 ± 1000; for Control (cell number without bFGF): no bFGF, control 61300 ± 500
Method: (§2) HUVE cells were seeded at 4×10^3 cells/cm^2 in attachment factor (Cell Systems Corp.)-coated 35 mm dishes in HE-SFM, and incubated with 1 μg/ml angiogenin in the presence or absence of inhibitors at 37° C. for 48 hr. Cell were detached by trypsinization and cell numbers were determined with a Coulter counter.
The ability of the other members of the aminoglycoside antibiotic family to inhibit bFGF-induced proliferation of HUVE cells was examined in a similar manner as for angiogenin as described in Section 6.1.1.5, above. HUVE cells, passage 9, were seeded on attachment-factor coated dishes at 50,000 cells per 35 mm dish in HE-SFM. Aminoglycoside antibiotics were added and the cells were incubated with or without […] at 37° C. for 48 hr.

HUVE cells [5] = assay: Cytotoxicity against HUVE cells; assay type: cell-based, human; conditions: concentration not given
Method: Human umbilical vein endothelial (HUVE) cells were purchased from Cell Systems Corp. (Kirkland, Wash.). […] Cells between passages 5 and 12 inclusive were used for all experiments. Cell numbers were determined with a Coulter counter, and cell viability was measured by trypan blue dye exclusion assay.

HUVE cells [6] = assay: Angiogenin-induced proliferation of HUVE cells; assay type: cell-based, human; conditions: for inhibition of angiogenin-induced cell proliferation: aminoglycoside 100 μM (Table 3); for Cell number / percent of cell number in the presence of 1 μg/ml angiogenin relative to the corresponding control: aminoglycoside 100 μM; for percent of cell number in the presence of 1 μg/ml angiogenin relative to the corresponding control: none: 120
Method: as §2

[7] = tested on: chorioallantoic membrane (CAM) of chick embryos; assay: CAM assay, aFGF-induced angiogenesis; assay type: in vivo; conditions: aFGF 10 ng alone
Method: as §1

[8] = tested on: chorioallantoic membrane (CAM) of chick embryos; assay: CAM assay, EGF-induced angiogenesis; assay type: in vivo; conditions: EGF 10 ng alone
Method: as §1

[9] = tested on: chorioallantoic membrane (CAM) of chick embryos; assay: CAM assay, VEGF-induced angiogenesis; assay type: in vivo; conditions: VEGF 10 ng alone
Method: as §1

[10] = with angiogenin 1 μg/ml, none: 62,500 ± 100
[11] = without angiogenin, none: 52,000 ± 100

Which results are given for bFGF: basic fibroblast growth factor?
Positive eggs ([1]; 37 total eggs): 29; % Positive ([1]; water 21): 78%

Which “effect on nuclear translocation of 125I-angiogenin” value (“effect on nuclear translocation” for short) [2] does the source give for `COc1ccc2c(c1)CC[C@@H]1[C@@H]2CC[C@]2(C)[C@@H](NCCCCCCN3C(=O)CCC3=O)CC[C@@H]12` [U-73343] here?
The value was “no effect”.

And the “Nuclear 125I-angiogenin” value ([2]; inhibitor 10 μM)?
Its value is 2890 ± 100 cpm.

What about the “% inhibition of nuclear translocation of angiogenin” value ([2]; inhibitor 10 μM) of the same molecule?
The value was 6%.

How did the “inhibition of angiogenin-induced angiogenesis in CAM assay” value [3] turn out when `[H]/N=C(/N)N[C@H]1[C@H](O)[C@@H](O)[C@H](O[C@@H]2O[C@@H](C)[C@](O)(C=O)[C@H]2O[C@@H]2O[C@@H](CO)[C@H](O)[C@@H](O)[C@@H]2NC)[C@@H](N/C(N)=N\[H])[C@@H]1O` [Streptomycin, streptomycin] was run?
Its value is “do not inhibit angiogenin-induced angiogenesis”.

What about the “significant inhibitory effect on cell proliferation induced by bFGF” value (from here on “significant inhibitory effect”) (HUVE cells [4]) of the same molecule?
The value was “no”.

What about the “% Inhibition of bFGF-induced cell proliferation” value (HUVE cells [4]) of the same molecule?
Its value is 0%.

And the “bFGF (10 ng/ml) Cell Numbers” value (HUVE cells [4])?
The value was 104200 ± 400.

What about the “Control (cell number without bFGF)” value (HUVE cells [4]) of the same molecule?
The value was 62300 ± 600.

What about the “cytotoxicity against HUVE cells” value (HUVE cells [5]) of the same molecule?
Its value is “no cytotoxicity”.

What about the “inhibition of angiogenin-induced cell proliferation” value (HUVE cells [6]) of the same molecule?
The value was “None”.

What about the Cell number (HUVE cells [6]; [10]) of the same molecule?
The Cell number was 59,900 ± 900.

And the Cell number (HUVE cells [6]; [11])?
The Cell number was 51,900 ± 1,300.

And the “percent of cell number in the presence of 1 μg/ml angiogenin relative to the corresponding control” value (HUVE cells [6])?
The value was 115%.

What does the source list for `NC[C@H]1O[C@H](O[C@H]2[C@H](O)[C@@H](O[C@H]3O[C@H](CO)[C@@H](O)[C@H](N)[C@H]3O)[C@H](N)C[C@@H]2N)[C@H](O)[C@@H](O)[C@@H]1O` [Kanamycin, kanamycin]?
% Inhibition of bFGF-induced cell proliferation (HUVE cells [4]): 8%; bFGF (10 ng/ml) Cell Numbers (HUVE cells [4]): 98000 ± 2500; Control (cell number without bFGF) (HUVE cells [4]): 62600 ± 1100; cytotoxicity against HUVE cells (HUVE cells [5]): no cytotoxicity; Cell number (HUVE cells [6]; [10]): 58,900 ± 200; Cell number (HUVE cells [6]; [11]): 48,800 ± 400; percent of cell number in the presence of 1 μg/ml angiogenin relative to the corresponding control (HUVE cells [6]): 121%

Which Positive eggs ([7]; 49 total eggs) does the source give for aFGF: acidic fibroblast growth factor here?
The Positive eggs was 36.

And the “% Positive” value ([7]; water 21)?
Its value is 73%.

What does the source list for `NC[C@@H]1O[C@H](O[C@H]2[C@@H](O)[C@H](O[C@@H]3[C@@H](O)[C@H](N)C[C@H](N)[C@H]3O[C@H]3O[C@H](CO)[C@@H](O)[C@H](O)[C@H]3N)O[C@@H]2CO)[C@H](N)[C@@H](O)[C@@H]1O` [Paromomycin, paromomycin]?
cytotoxicity against HUVE cells (HUVE cells [5]): no cytotoxicity; inhibition of angiogenin-induced cell proliferation (HUVE cells [6]): did not inhibit angiogenin-induced cell proliferation; also recorded: no inhibitory activity at all; Cell number (HUVE cells [6]; [10]): 58,900 ± 400; Cell number (HUVE cells [6]; [11]): 50,900 ± 500; percent of cell number in the presence of 1 μg/ml angiogenin relative to the corresponding control (HUVE cells [6]): 116%

How did the “Nuclear 125I-angiogenin” value ([2]; inhibitor 10 μM) turn out when `COc1ccc2c(c1)CC[C@@H]1[C@@H]2CC[C@]2(C)[C@@H](NCCCCCCN3C(=O)C=CC3=O)CC[C@@H]12` [U-73122] was run?
Its value is 2140 ± 30 cpm.

What about the “% inhibition of nuclear translocation of angiogenin” value ([2]; inhibitor 10 μM, 10 µM) of the same molecule?
Its value is 30% and 31%.

For “Angiogenin: Human angiogenin (Met-1), recombinant product from an Escherichia coli expression system”, which “% Positive (angiogenic response)” value ([3]; angiogenin 10 ng alone, water 20) is on record?
Its value is 55%.

And the “increase of cell number after 48 hr” value (HUVE cells [6]; angiogenin 1 μg/ml, no neomycin)?
The value was 35%.

For `CN[C@@H]1C[C@H]2O[C@@](C)([C@@H]1OC)n1c3ccccc3c3c4c(c5c6ccccc6n2c5c31)C(=O)NC4` [Staurosporine, staurosporine], which “effect on nuclear translocation” value [2] is on record?
Its value is “only marginally inhibitory; also recorded: do not inhibit nuclear translocation of angiogenin”.

What about the “Nuclear 125I-angiogenin” value ([2]; inhibitor 100 nM) of the same molecule?
Its value is 2710 ± 70 cpm.

For EGF: epidermal growth factor, which Positive eggs ([8]; 26 total eggs) is on record?
Its Positive eggs is 18.

What about the “% Positive” value ([8]; water 21) of the same molecule?
Its value is 69%.

Which Positive eggs ([9]; 27 total eggs) does the source give for VEGF here?
The Positive eggs was 17.

And the “% Positive” value ([9]; water 21)?
Its value is 63%.

For `O=c1c(-c2ccc(O)cc2)coc2cc(O)cc(O)c12` [Genistein, genistein], which “effect on nuclear translocation” value [2] is on record?
Its value is “no effect; also recorded: do not inhibit nuclear translocation of angiogenin”.

What about the inhibition at 100 µM ([2]; Homo sapiens, 0.5 h, read-out: % inhibition of nuclear translocation of angiogenin) of the same molecule?
Its inhibition at 100 µM is 0%.

What about the “Nuclear 125I-angiogenin” value ([2]; inhibitor 100 μM) of the same molecule?
Its value is 3300 ± 170 cpm.

With gentamicin as the molecule, how does the “significant inhibitory effect” value (HUVE cells [4]) read?
The value was “no”.

What about the “% Inhibition of bFGF-induced cell proliferation” value (HUVE cells [4]) of the same molecule?
The value was 5%.

And the “bFGF (10 ng/ml) Cell Numbers” value (HUVE cells [4])?
The value was 98400 ± 1900.

What about the “Control (cell number without bFGF)” value (HUVE cells [4]) of the same molecule?
The value was 61800 ± 1200.

What about the “cytotoxicity against HUVE cells” value (HUVE cells [5]) of the same molecule?
The value was “no cytotoxicity”.

What about the “inhibition of angiogenin-induced cell proliferation” value (HUVE cells [6]) of the same molecule?
The value was “None”.

What about the Cell number (HUVE cells [6]; [10]) of the same molecule?
The Cell number was 55,700 ± 900.

What about the Cell number (HUVE cells [6]; [11]) of the same molecule?
The Cell number was 45,700 ± 500.

And the “percent of cell number in the presence of 1 μg/ml angiogenin relative to the corresponding control” value (HUVE cells [6])?
The value was 121%.

With `NCC[C@H](O)C(=O)N[C@@H]1C[C@H](N)[C@@H](O[C@H]2O[C@H](CN)[C@@H](O)[C@H](O)[C@H]2O)[C@H](O)[C@H]1O[C@H]1O[C@H](CO)[C@@H](O)[C@H](N)[C@H]1O` [Amikacin, amikacin] as the molecule, how does the “inhibition of angiogenin-induced angiogenesis in CAM assay” value [3] read?
The value was “do not inhibit angiogenin-induced angiogenesis”.

And the “significant inhibitory effect” value (HUVE cells [4])?
Its value is “no”.

What about the “% Inhibition of bFGF-induced cell proliferation” value (HUVE cells [4]) of the same molecule?
The value was 11%.

And the “bFGF (10 ng/ml) Cell Numbers” value (HUVE cells [4])?
Its value is 97600 ± 1300.

And the “Control (cell number without bFGF)” value (HUVE cells [4])?
The value was 63000 ± 900.

And the “cytotoxicity against HUVE cells” value (HUVE cells [5])?
Its value is “no cytotoxicity”.

And the “inhibition of angiogenin-induced cell proliferation” value (HUVE cells [6])?
The value was “None”.

And the Cell number (HUVE cells [6]; [10])?
Its Cell number is 61,000 ± 400.

And the Cell number (HUVE cells [6]; [11])?
Its Cell number is 51,700 ± 200.

What about the “percent of cell number in the presence of 1 μg/ml angiogenin relative to the corresponding control” value (HUVE cells [6]) of the same molecule?
The value was 118%.
